Here are results for eleven molecules from patent publication US20070191363A1, “Heteroalkyl-substituted biphenyl-4-carboxylic acid arylamide analogues” (Neurogen Corporation, priority 2004, published 2007).

Bounds are passed on as bounds.

One test deals with T1, human capsaicin receptor (Homo sapiens, UniProt Q8NER1).
T1 construct: expressed in transfected cells
T1 sequence (Q8NER1 whole entry): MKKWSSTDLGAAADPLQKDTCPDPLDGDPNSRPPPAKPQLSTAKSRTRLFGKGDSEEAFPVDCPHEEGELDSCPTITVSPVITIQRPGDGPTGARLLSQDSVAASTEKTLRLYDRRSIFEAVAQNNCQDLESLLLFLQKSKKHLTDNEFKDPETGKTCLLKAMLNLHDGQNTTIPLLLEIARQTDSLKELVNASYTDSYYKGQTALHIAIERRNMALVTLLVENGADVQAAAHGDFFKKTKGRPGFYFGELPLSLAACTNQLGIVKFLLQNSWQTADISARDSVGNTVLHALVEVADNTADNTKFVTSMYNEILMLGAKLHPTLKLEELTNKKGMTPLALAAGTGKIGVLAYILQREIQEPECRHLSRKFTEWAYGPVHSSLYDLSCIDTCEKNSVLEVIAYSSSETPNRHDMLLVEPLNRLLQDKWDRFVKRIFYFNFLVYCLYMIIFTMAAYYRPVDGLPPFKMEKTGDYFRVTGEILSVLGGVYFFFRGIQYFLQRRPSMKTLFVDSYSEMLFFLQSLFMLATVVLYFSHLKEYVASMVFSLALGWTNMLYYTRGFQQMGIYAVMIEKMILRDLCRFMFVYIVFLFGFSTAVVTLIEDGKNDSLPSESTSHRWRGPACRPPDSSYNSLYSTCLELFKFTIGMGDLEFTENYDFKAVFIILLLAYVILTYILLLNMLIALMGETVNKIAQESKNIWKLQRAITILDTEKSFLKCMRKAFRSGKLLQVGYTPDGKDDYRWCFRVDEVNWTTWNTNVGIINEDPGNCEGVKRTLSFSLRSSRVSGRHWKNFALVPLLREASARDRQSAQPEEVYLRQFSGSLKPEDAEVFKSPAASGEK
Put plainly: Calcium mobilization assay, determination of antagonist activity. In kind it is cell-based. Conditions: 50% decrease in the fluorescence response of cells exposed to capsaicin; cells expressing human capsaicin receptor. The protocol:
A cDNA encoding full length human capsaicin receptor (SEQ ID NO:1, 2 or 3 of U.S. Pat. No. 6,482,611) is subcloned in the plasmid pBK-CMV (Stratagene, La Jolla, Calif.) for recombinant expression in mammalian cells.
Human embryonic kidney (HEK293) cells are transfected with the pBK-CMV expression construct encoding the full length human capsaicin receptor using standard methods. The transfected cells are selected for two weeks in media containing G418 (400 μg/ml) to obtain a pool of stably transfected cells. Independent clones are isolated from this pool by limiting dilution to obtain clonal stable cell lines for use in subsequent experiments.
This Example illustrates a representative calcium mobilization assay for use in monitoring the response of cells expressing capsaicin receptor to capsaicin and other vanilloid ligands of the capsaicin receptor, as well as for evaluating test compounds for agonist and antagonist activity.
(§1) Cells transfected with expression plasmids (as described in Example 3) and thereby expressing human capsaicin receptor are seeded and grown to 70-90% confluency in FALCON black-walled, clear-bottomed 96-well plates (#3904, BECTON-DICKINSON, Franklin Lakes, N.J.). The culture medium is emptied from the 96 well plates and FLUO-3 AM calcium sensitive dye (Molecular Probes, Eugene, Oreg.) is added to each well (dye solution: 1 mg FLUO-3 AM, 440 μL DMSO and 440 μl 20% pluronic acid in DMSO, diluted 1:250 in Krebs-Ringer HEPES (KRH) buffer (25 mM HEPES, 5 mM KCl, 0.96 mM NaH2PO4, 1 mM MgSO4, 2 mM CaCl2, 5 mM glucose, 1 mM probenecid, pH 7.4), 50 μl diluted solution per well). Plates are covered with aluminum foil and incubated at 37° C. for 1-2 hours in an environment containing 5% CO2. After the incubation, the dye is emptied from the plates, and the cells are washed once with KRH buffer, and resuspended in KRH buffer.
To measure the ability of a test compound to agonize or antagonize a calcium mobilization response in cells expressing capsaicin receptors to capsaicin or other vanilloid agonist, the EC50 of the agonist capsaicin is first determined. An additional 20 μl of KRH buffer and 1 μl DMSO is added to each well of cells, prepared as described above. 100 μl capsaicin in KRH buffer is automatically transferred by the FLIPR instrument to each well. Capsaicin-induced calcium mobilization is monitored using either FLUOROSKAN ASCENT (Labsystems; Franklin, Mass.) or FLIPR (fluorometric imaging plate reader system; Molecular Devices, Sunnyvale, Calif.) instruments. Data obtained between 30 and 60 seconds after agonist application are used to generate an 8-point concentration response curve, with final capsaicin concentrations of 1 nM to 3 μM. […] software (Synergy Software, Reading, Pa.) is used to fit the data to the equation: y=a*(1/(1+(b/x)c)) to determine the 50% excitatory concentration (EC50) for the response. In this equation, y is the maximum fluorescence signal, x is the concentration of the agonist or antagonist (in this case, capsaicin), a is the Emax, b corresponds to the EC50 value and c is the Hill coefficient. Determination of Agonist Activity
Test compounds are dissolved in DMSO, diluted in 20 μl KRH buffer so that the final concentration of test compounds in the assay well is between 1 μM and 5 μM, and added to cells prepared as described above. The 96 well plates containing prepared cells and test compounds are incubated in the dark, at room temperature for 0.5 to 6 hours. It is important that the incubation not continue beyond 6 hours. Just prior to determining the fluorescence response, 100 μl capsaicin in KRH buffer at twice the EC50 concentration determined as described above is automatically added by the FLIPR instrument to each well of the 96 well plate for a final sample volume of 200 μl and a final capsaicin concentration equal to the EC50. The final concentration of test compounds in the assay wells is between 1 μM and 5 μM.
For orientation: Calcium assays in cells follow changes in intracellular calcium, usually with a dye or a luminescent sensor.
With `CC(C)(C)c1ccc(NC(=O)c2ccc(-c3ncccc3C(F)(F)F)cc2)cc1OCCO` [Compound 1, N-[4-tert-Butyl-3-(2-hydroxy-ethoxy)-phenyl]-4-(3-trifluoromethyl-pyridin-2-yl)-benzamide], the IC50 (usually the concentration at which inhibition is half-maximal) is at most 1 µM.

Turning to `CC(C)(C)c1ccc(NC(=O)c2ccc(-c3ncccc3C(F)(F)F)cc2)cc1OCCN1CCOCC1` [Compound 2, N-[4-tert-Butyl-3-(2-morpholin-4-yl-ethoxy)-phenyl]-4-(3-trifluoromethyl-pyridin-2-yl)-benzamide], the IC50 was at most 1 µM.

As for `C[C@@H]1CN(CCOc2cc(NC(=O)c3ccc(-c4ncccc4C(F)(F)F)cc3)ccc2C(C)(C)C)C[C@H](C)O1` [Compound 3, N-{4-tert-Butyl-3-[2-(2,6-dimethyl-morpholin-4-yl)-ethoxy]-phenyl}-4-(3-trifluoromethyl-pyridin-2-yl)-benzamide (cis)], the IC50 was at most 1 µM.

On to `CC(C)(C)c1ccc(NC(=O)c2ccc(-c3ncccc3C(F)(F)F)cc2)cc1OCCN1CCCCC1` [Compound 4, N-[4-tert-Butyl-3-(2-piperidin-1-yl-ethoxy)-phenyl]-4-(3-trifluoromethyl-pyridin-2-yl)-benzamide], for which the IC50 was at most 1 µM.

`COCCN(CCOC)CCOc1cc(NC(=O)c2ccc(-c3ncccc3C(F)(F)F)cc2)ccc1C(C)(C)C` [Compound 5, N-(3-{2-[Bis-(2-methoxy-ethyl)-amino]-ethoxy}-4-tert-butyl-phenyl)-4-(3-trifluoromethyl-pyridin-2-yl)-benzamide]: the 50% inhibitory concentration (IC50) is at most 1 µM.

`CC1(C)CCCN(CCOc2cc(NC(=O)c3ccc(-c4ncccc4C(F)(F)F)cc3)ccc2C(C)(C)C)C1` [Compound 6, N-{4-tert-Butyl-3-[2-(3,3-dimethyl-piperidin-1-yl)-ethoxy]-phenyl}-4-(3-trifluoromethyl-pyridin-2-yl)-benzamide]: the IC50 was at most 1 µM.

As for `CC(C)(C)c1ccc(NC(=O)c2ccc(-c3ncccc3C(F)(F)F)cc2O)cc1OCCO` [Compound 7, N-[4-tert-Butyl-3-(2-hydroxy-ethoxy)-phenyl]-2-hydroxy-4-(3-trifluoromethyl-pyridin-2-yl)-benzamide], the IC50 is at most 1 µM.

`C[C@@H]1CN(CCOc2cc(NC(=O)c3ccc(-c4ncccc4C(F)(F)F)cc3O)ccc2C(C)(C)C)C[C@H](C)O1` [Compound 8, N-{4-tert-Butyl-3-[2-(2,6-dimethyl-morpholin-4-yl)-ethoxy]-phenyl}-2-hydroxy-4-(3-trifluoromethyl-pyridin-2-yl)-benzamide (cis)]: the IC50 was at most 1 µM.

Turning to `CC(C)(C)c1ccc(NC(=O)c2ccc(-c3ncccc3C(F)(F)F)cc2O)cc1OCCN1CCCCC1` [Compound 9, N-[4-tert-Butyl-3-(2-piperidin-1-yl-ethoxy)-phenyl]-2-hydroxy-4-(3-trifluoromethyl-pyridin-2-yl)-benzamide], the IC50 was at most 1 µM.

Another test has as its target T1, human capsaicin receptor. Put plainly: Calcium mobilization assay, capsaicin agonist response. The class given is cell-based. The following applies: capsaicin positive control, calcium mobilization in cells expressing human capsaicin receptor; read-out: approximate EC90 concentration. Here is the method: as §1, with “Plates are covered with aluminum foil and incubated at 37° C. for 1-2 hours in an environment containing 5% CO2. After the incubation, the dye is emptied from the plates, and the cells are washed once with KRH buffer, and resuspended in KRH buffer.” left out
To measure the ability of a test compound to agonize or antagonize a calcium mobilization response in cells expressing capsaicin receptors to capsaicin or other vanilloid agonist, the EC50 of the agonist capsaicin is first determined. […] Capsaicin-induced calcium mobilization is monitored using either FLUOROSKAN ASCENT (Labsystems; Franklin, Mass.) or FLIPR (fluorometric imaging plate reader system; Molecular Devices, Sunnyvale, Calif.) instruments. […] In this equation, y is the maximum fluorescence signal, x is the concentration of the agonist or antagonist (in this case, capsaicin), a is the Emax, b corresponds to the EC50 value and c is the Hill coefficient. […]
As for `COc1cc(CNC(=O)CCCC/C=C/C(C)C)ccc1O` [capsaicin], the EC90 is around 0.1 µM.

A further test deals with VR.
Test: not given
The following applies: binds to VR with no more than moderate affinity; typical value; cited from earlier work.
Consider `Cl.Cl.Cl.Cl.Cl.Cl.N.N.N.N.N.N.N.N.N.N.N.N.N.N.[O-2].[O-2].[Ru+3].[Ru+3].[Ru+4]` [ruthenium red], for which the Ki (usually the dissociation constant of the complex between target and ligand, obtained from inhibition or displacement) is at least 140 µM.
